The record followed here is US20120053200A1, “BACE 2 INHIBITORS” (priority 2010, published 2012).

This experiment addresses T1, BACE2 (Rattus norvegicus, UniProt Q6IE75).
T1 construct: endogenous cellular BACE2 in the Ins1e rat cell line; endogenous in cells; host or cells: INS-TMEM27 (INS1e-derived rat beta-cell line with doxycycline-inducible full-length hTMEM27)
T1 sequence (Q6IE75 63-514): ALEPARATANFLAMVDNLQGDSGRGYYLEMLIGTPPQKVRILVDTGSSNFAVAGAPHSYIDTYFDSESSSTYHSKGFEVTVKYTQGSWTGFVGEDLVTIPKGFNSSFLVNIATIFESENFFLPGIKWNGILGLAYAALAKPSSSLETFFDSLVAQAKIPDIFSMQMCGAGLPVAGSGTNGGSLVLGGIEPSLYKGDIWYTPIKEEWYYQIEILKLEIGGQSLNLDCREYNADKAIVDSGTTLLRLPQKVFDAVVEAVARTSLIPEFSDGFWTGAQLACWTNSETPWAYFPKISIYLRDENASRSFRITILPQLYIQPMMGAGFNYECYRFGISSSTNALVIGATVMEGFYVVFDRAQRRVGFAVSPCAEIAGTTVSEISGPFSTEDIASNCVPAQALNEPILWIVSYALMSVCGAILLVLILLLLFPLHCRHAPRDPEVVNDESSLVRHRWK
In words: Assay for BACE inhibition by measuring cellular TMEM27 cleavage (INS-TMEM27 cells, ELISA of shed TMEM27). In kind it is cell-based. The following applies: inhibition of human TMEM27 cleavage by endogenous cellular BACE2 in INS1e-derived INS-TMEM27 rat cell line; ELISA of shed TMEM27 in supernatant. An excerpt: Assay for […] Inhibition by Measuring Cellular TMEM27 Cleavage
This assay uses the principle of inhibition of human TMEM27 cleavage by endogenous cellular BACE2 in the Ins1e rat cell line and shedding from the cell surface into the culture medium, followed by detection in an ELISA assay. Inhibition of BACE2 prevents the cleavage and shedding in a dose-dependent manner.
The stable cell line “INS-TMEM27” represents an INS1e-derived cell line with inducible expression (using the TetOn system) of full-length hTMEM27 in a doxycycline-dependent manner. The cells were cultured throughout the experiment in RPMI1640+Glutamax (Invitrogen) Penicillin/Streptomycin, 10% Fetal bovine serum, 100 mM pyruvate, […] beta-mercatptoethanol, 100 micrograms/ml G418 and 100 microgram/ml hygromycin and were grown in adherent culture at 37° C. in a standard CO2 cell culture incubator.
INS-TMEM27 cells were seeded in 96-well plates. After 2 days in culture, BACE2 inhibitor was added in a range of concentrations as required by the assay and after a further two hours, doxycycline was added to a final concentration of 500 ng/ml. The cells were incubated for a further 46 hours and the supernatant harvested for detection of shed TMEM27.
An ELISA assay (using a pair of mouse anti-human-TMEM27 antibodies, raised against the extracellular domain of TMEM27) was used for detection of TMEM27 in the culture medium. An IC50 for BACE2 inhibition was calculated using the ELISA readout for each inhibitor concentration with standard curve-fitting software.
The inhibitory activity, given as an IC50 value, of the compounds of Examples 1 to 32 and 34 to 74 were as follows.
(In an ELISA, binding on a coated surface is turned into a signal by an enzyme label.)
The compound `Cc1csc(CN(C)C(=O)c2cccc(C(=O)N[C@@H](Cc3ccccc3)[C@H](O)CNCc3cccc(C(F)(F)F)c3)c2)n1` [Example 1, N-[(1S,2R)-1-Benzyl-2-hydroxy-3-(3-trifluoromethyl-benzylamino)-propyl]-N′-methyl-N′-(4-methyl-thiazol-2-ylmethyl)-isophthalamide] had an IC50 of 205 nM.

`Cc1csc(CN(C)C(=O)c2cccc(C(=O)N[C@@H](Cc3ccccc3)[C@H](O)CNCc3cccc(OC(F)(F)F)c3)c2)n1` [Example 2, N-[(1S,2R)-1-Benzyl-2-hydroxy-3-(3-trifluoromethoxy-benzylamino)-propyl]-N′-methyl-N′-(4-methyl-thiazol-2-ylmethyl)-isophthalamide] showed an IC50 of 258 nM. This IC50 and that of the compound before are within 1.5-fold of each other.

On to `COc1cccc(CNC[C@@H](O)[C@H](Cc2ccccc2)NC(=O)c2cccc(C(=O)N(C)Cc3nc(C)cs3)c2)c1` [Example 3, N-[(1S,2R)-1-Benzyl-2-hydroxy-3-(3-methoxy-benzylamino)-propyl]-N′-methyl-N′-(4-methyl-thiazol-2-ylmethyl)-isophthalamide], for which the IC50 came to 175 nM. The IC50 values of the last two compounds are within 1.5-fold of each other.

The compound `O=C(N[C@@H](Cc1ccccc1)[C@H](O)CNCc1cccc(OC(F)(F)F)c1)c1cccc(C(=O)N2CCCC2c2ccncc2)c1` (stereo partly drawn) [Example 4, N-[(1S,2R)-1-Benzyl-2-hydroxy-3-(3-trifluoromethoxy-benzylamino)-propyl]-3-(2-pyridin-4-yl-pyrrolidine-1-carbonyl)-benzamide] returned an IC50 of 471 nM. Against the preceding compound, the IC50 is about 2.7-fold higher.

Compound `O=C(N[C@@H](Cc1ccccc1)[C@H](O)CNCc1cccc(C(F)(F)F)c1)c1cccc(C(=O)N2CCCC2c2ccncc2)c1` (stereo partly drawn) [Example 5, N-[(1S,2R)-1-Benzyl-2-hydroxy-3-(3-trifluoromethyl-benzylamino)-propyl]-3-(2-pyridin-4-yl-pyrrolidine-1-carbonyl)-benzamide] showed an IC50 of 140 nM.

In the case of `O=C(NCc1ccccn1)c1cccc(C(=O)N[C@@H](Cc2ccccc2)[C@H](O)CNCc2cccc(OC(F)(F)F)c2)c1` [Example 6, N-[(1S,2R)-1-Benzyl-2-hydroxy-3-(3-trifluoromethoxy-benzylamino)-propyl]-N′-pyridin-2-ylmethyl-isophthalamide], half-maximal inhibition (IC50) required 520 nM.

Turning to `O=C(NCc1ccccn1)c1cccc(C(=O)N[C@@H](Cc2ccccc2)[C@H](O)CNCc2cccc(C(F)(F)F)c2)c1` [Example 7, N-[(1S,2R)-1-Benzyl-2-hydroxy-3-(3-trifluoromethyl-benzylamino)-propyl]-N′-pyridin-2-ylmethyl-isophthalamide], 478 nM corresponded to half-maximal inhibition (IC50).

For the compound `CC1(C)[C@@H]2CC[C@@]1(C)CN(C(=O)c1cccc(C(=O)N[C@@H](Cc3ccccc3)[C@H](O)CNCc3cccc(OC(F)(F)F)c3)c1)C2` [Example 8, N-[(1S,2R)-1-Benzyl-2-hydroxy-3-(3-trifluoromethoxy-benzylamino)-propyl]-3-((1R,5S)-1,8,8-trimethyl-3-aza-bicyclo[3.2.1]octane-3-carbonyl)-benzamide], the IC50 came out at 822 nM. This IC50 lies about 1.7-fold higher than the previous one.

`O=C(N[C@@H](Cc1ccccc1)[C@H](O)CNCc1cccc(OC(F)(F)F)c1)c1cccc(C(=O)N2CCC(c3ccccn3)C2)c1` (stereo partly drawn) [Example 9, N-[(1S,2R)-1-Benzyl-2-hydroxy-3-(3-trifluoromethoxy-benzylamino)-propyl]-3-(3-pyridin-2-yl-pyrrolidine-1-carbonyl)-benzamide] gave an IC50 of 263 nM.

`Cc1cc(C(=O)N[C@@H](Cc2ccccc2)[C@H](O)CNCc2cccc(OC(F)(F)F)c2)cc(C(=O)N2CCC[C@@H]2c2nc(C)cs2)c1` [Example 10, N-[(1S,2R)-1-Benzyl-2-hydroxy-3-(3-trifluoromethoxy-benzylamino)-propyl]-3-methyl-5-[(R)-2-(4-methyl-thiazol-2-yl)-pyrrolidine-1-carbonyl]-benzamide] gave a half-inhibitory concentration (IC50) of 14 nM. Compared with the last compound, the IC50 is about 19-fold lower.

With `Cc1csc([C@H]2CCCN2C(=O)c2cccc(C(=O)N[C@@H](Cc3ccccc3)[C@H](O)CNCc3cccc(C(F)(F)F)c3)c2)n1` [Example 11, N-[(1S,2R)-1-Benzyl-2-hydroxy-3-(3-trifluoromethyl-benzylamino)-propyl]-3-[(R)-2-(4-methyl-thiazol-2-yl)-pyrrolidine-1-carbonyl]-benzamide], the IC50 was determined as 9 nM.

For the compound `O=C(N[C@@H](Cc1ccccc1)[C@H](O)CNCc1cccc(C(F)(F)F)c1)c1cccc(C(=O)N2CCCC2c2ccccc2)c1` (stereo partly drawn) [Example 12, N-[(1S,2R)-1-Benzyl-2-hydroxy-3-(3-trifluoromethyl-benzylamino)-propyl]-3-(2-phenyl-pyrrolidine-1-carbonyl)-benzamide], the IC50 amounted to 75 nM.

The compound `O=C(N[C@@H](Cc1ccccc1)[C@H](O)CNCc1cccc(C(F)(F)F)c1)c1cccc(C(=O)N2CCCC2c2cccnc2)c1` (stereo partly drawn) [Example 13, N-[(1S,2R)-1-Benzyl-2-hydroxy-3-(3-trifluoromethyl-benzylamino)-propyl]-3-(2-pyridin-3-yl-pyrrolidine-1-carbonyl)-benzamide] registered an IC50 of 68 nM. This IC50 and that of the compound before are within 1.5-fold of each other.

Compound `Cn1ccc(C2CCCN2C(=O)c2cccc(C(=O)N[C@@H](Cc3ccccc3)[C@H](O)CNCc3cccc(C(F)(F)F)c3)c2)n1` (stereo partly drawn) [Example 14, N-[(1S,2R)-1-Benzyl-2-hydroxy-3-(3-trifluoromethyl-benzylamino)-propyl]-3-[2-(1-methyl-1H-pyrazol-3-yl)-pyrrolidine-1-carbonyl]-benzamide] had an IC50 of 63 nM.

As for `Cn1nccc1C1CCCN1C(=O)c1cccc(C(=O)N[C@@H](Cc2ccccc2)[C@H](O)CNCc2cccc(C(F)(F)F)c2)c1` (stereo partly drawn) [Example 15, N-[(1S,2R)-1-Benzyl-2-hydroxy-3-(3-trifluoromethyl-benzylamino)-propyl]-3-[2-(2-methyl-2H-pyrazol-3-yl)-pyrrolidine-1-carbonyl]-benzamide], half-maximal inhibition (IC50) required 332 nM.

Consider `Cc1cc(C2CCCN2C(=O)c2cccc(C(=O)N[C@@H](Cc3ccccc3)[C@H](O)CNCc3cccc(C(F)(F)F)c3)c2)on1` (stereo partly drawn) [Example 16, N-[(1S,2R)-1-Benzyl-2-hydroxy-3-(3-trifluoromethyl-benzylamino)-propyl]-3-[2-(3-methyl-isoxazol-5-yl)-pyrrolidine-1-carbonyl]-benzamide], for which the IC50 was 55 nM. Against the preceding compound, the IC50 is about 6-fold lower.

Compound `Cc1noc(C2CCCN2C(=O)c2cccc(C(=O)N[C@@H](Cc3ccccc3)[C@H](O)CNCc3cccc(C(F)(F)F)c3)c2)n1` (stereo partly drawn) [Example 17, N-[(1S,2R)-1-Benzyl-2-hydroxy-3-(3-trifluoromethyl-benzylamino)-propyl]-3-[2-(3-methyl-[1,2,4]oxadiazol-5-yl)-pyrrolidine-1-carbonyl]-benzamide] displayed an IC50 of 213 nM. Against the preceding compound, the IC50 is about 3.9-fold higher.

Compound `CN(Cc1ccccn1)C(=O)c1cccc(C(=O)N[C@@H](Cc2ccccc2)[C@H](O)CNCc2cccc(C(F)(F)F)c2)c1` [Example 18, N-[(1S,2R)-1-Benzyl-2-hydroxy-3-(3-trifluoromethyl-benzylamino)-propyl]-N′-methyl-N′-pyridin-2-ylmethyl-isophthalamide] showed an IC50 of 47 nM.

`O=C(N[C@@H](Cc1ccccc1)[C@H](O)CNCc1cccc(C(F)(F)F)c1)c1cccc(C(=O)N2CCCC2c2cccs2)c1` (stereo partly drawn) [Example 19, N-[(1S,2R)-1-Benzyl-2-hydroxy-3-(3-trifluoromethyl-benzylamino)-propyl]-3-(2-thiophen-2-yl-pyrrolidine-1-carbonyl)-benzamide] displayed an IC50 of 8 nM. Compared with the last compound, the IC50 is about 5.9-fold lower.

`COc1cccc(CNC[C@@H](O)[C@H](Cc2ccccc2)NC(=O)c2cccc(C(=O)N3CCC[C@@H]3c3nc(C)cs3)c2)c1` [Example 20, N-[(1S,2R)-1-Benzyl-2-hydroxy-3-(3-methoxy-benzylamino)-propyl]-3-[(R)-2-(4-methyl-thiazol-2-yl)-pyrrolidine-1-carbonyl]-benzamide] yielded an IC50 of 143 nM.

On to `Cc1csc([C@H]2CCCN2C(=O)c2cccc(C(=O)N[C@@H](Cc3ccccc3)[C@H](O)CNCc3cccc(OC(F)(F)F)c3)c2)n1` [Example 21, N-[(1S,2R)-1-Benzyl-2-hydroxy-3-(3-trifluoromethoxy-benzylamino)-propyl]-3-[(R)-2-(4-methyl-thiazol-2-yl)-pyrrolidine-1-carbonyl]-benzamide], for which the 50% inhibitory concentration (IC50) is 37 nM.

For orientation: IC50 means the point on the concentration scale where inhibition reaches its midpoint.
